Results on 79 compounds are retold here after the METLIN SMRT retention time set (Domingo-Almenara et al. 2019).

This data set can be described thus: gradient 5% acetonitrile 3 min, to 50% in 2 min, to 85% in 15 min, held 3 min, 100 µL/min. Conditions: column: Zorbax Extend-C18 2.1 x 50 mm; eluents: water / acetonitrile, 0.1% formic acid. In short, it runs like this:
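Retention time was recorded from adduct peaks, which were picked computationally and each inspected manually. Pure standards ran in mixtures of ~100 molecules on HPLC coupled to a quadrupole time-of-flight mass spectrometer, in positive and negative ionization mode, through a Zorbax Extend-C18 column (2.1 × 50 mm, 1.8 μm) at 100 μL/min. Eluents were water and acetonitrile, each with 0.1% formic acid.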
In turn, `CC1CCN(C(CNC(=O)c2cc(-c3ccc4c(c3)OCCO4)on2)c2ccco2)CC1` (centres undefined) had an RP-LC retention time of 720 s.

Compound `Cc1ccc(S(=O)(=O)N2CCC(n3cnnc3-c3ccccc3)CC2)cc1C` yielded an RP-LC retention time of 859 s.

`CCS(=O)(=O)c1nc2ccc(NS(=O)(=O)c3ccc(OC)cc3)cc2s1`: the RP-LC retention time came out at 833 s.

Take `FC1(F)C[C@@H](CN2CCOCC2)N(Cc2cn[nH]c2-c2ccccc2)C1`: the RP-LC retention time amounted to 765 s.

In turn, `C#CCOCC1CCCN(S(=O)(=O)c2cc(F)ccc2OC)C1` (centres undefined) registered an RP-LC retention time of 871 s.

In the case of `CSc1ccc(CNC(=O)Cn2cnc3nc4c(cc3c2=O)CCCC4)cc1`, the RP-LC retention time amounted to 733 s.

Consider `CCn1c(=O)n(Cc2ccccn2)c(=O)c2cnc(-c3ccc(OC)cc3)nc21`, for which the RP-LC retention time is 880 s.

Turning to `Cc1ccc(N2C(=O)C3N=NN(Cc4nc(-c5ccccc5Br)no4)C3C2=O)cc1C` (centres undefined), the RP-LC retention time was 1030 s.

`CCCCC(=O)Nc1ccc(OCc2cc(C(=O)NC(C)C)no2)cc1`: the RP-LC retention time is 827 s.

The compound `C=CCNc1nc(-c2ccc(Cl)cc2)cs1` showed an RP-LC retention time of 984 s.

Take `Cn1nc(-c2nc(C3CC3)no2)c2c1CCN(C(=O)c1cc(F)ccc1F)C2`: the RP-LC retention time amounted to 860 s.

Regarding `CC1CCN(c2cncnc2-n2cc(NC(=O)CC3CCCCC3)cn2)CC1`, the RP-LC retention time was 1030 s.

Regarding `CCCNc1c(C(=O)OC)c(=O)[nH]c2ccc(F)cc12`, the RP-LC retention time was found to be 699 s.

Consider `Cn1c(=O)c(N2CCN(C(=O)C3(c4ccccc4)CC3)CC2)nc2ccccc21`, for which the RP-LC retention time turned out to be 951 s.

Compound `Cc1cccc(NC(=O)CN2C(=O)CCS(=O)(=O)c3ccccc32)c1C` returned an RP-LC retention time of 760 s.

As to `Cc1cc2nn(CC(=O)Nc3ccc(F)cc3F)c(=O)n2c(Nc2ccc(C)c(F)c2)n1`, the RP-LC retention time was found to be 1080 s.

Turning to `COc1ccc(OC)c(Nc2nc(NCC3CCCO3)nc(N)c2[N+](=O)[O-])c1` (centres undefined), the RP-LC retention time is 810 s.

Consider `O=C(CN1C(=O)CCCc2ccccc21)N1CCN(c2ccc(Cl)cc2)CC1`, for which the RP-LC retention time turned out to be 944 s.

`CCCCN(C)C(=O)C1CCCCc2nnc(C(C)C)n21` (centres undefined) registered an RP-LC retention time of 666 s.

Compound `CCc1nc2cc(-c3noc(-c4ccc(OC)c(OC)c4)n3)ccc2o1` registered an RP-LC retention time of 1080 s.

`CC[C@H](C)NC(=O)Cc1nnc(-c2cccc(C)c2)o1`: the RP-LC retention time was determined as 767 s.

In the case of `CC(=O)Nc1nsc(N2CCC(C(=O)N3CCN(c4ccc(C)cc4)CC3)CC2)n1`, the RP-LC retention time is 675 s.

Regarding `CC(C)CC(=O)N1CCc2nc(-c3ccccc3)ncc2C1`, the RP-LC retention time was 868 s.

As to `CO[C@H]1C(=O)N(C2CCN(S(=O)(=O)Cc3ccccc3)CC2)[C@H]1c1ccncc1`, the RP-LC retention time is 632 s.

For the compound `O=C(NCCn1nc(-c2ccc(Cl)cc2)ccc1=O)c1csc(-c2ccccc2)n1`, the RP-LC retention time was found to be 854 s.

On to `O=C(Nc1c(-c2ccc(F)cc2)nc2ccccn12)c1cccc(C(F)(F)F)c1`, for which the RP-LC retention time came out at 748 s.

Turning to `O=C(NCc1cccnc1)c1cc(-c2ccc3c(c2)OCO3)nc2ccccc12`, the RP-LC retention time turned out to be 665 s.

Compound `CC(NC(=O)Cc1cccn1-c1ccc(Cl)cc1)c1ccccn1` (centres undefined) yielded an RP-LC retention time of 790 s.

Take `CCN(Cc1ccccc1)C(=O)CN1C(=O)CCCc2cc(S(=O)(=O)N3CCOCC3)ccc21`: the RP-LC retention time worked out at 825 s.

The compound `Cc1ccc(Nc2c(-c3ccc(C)cc3)nc3c(C)cccn23)cc1` returned an RP-LC retention time of 808 s.

Turning to `Cc1nc(C2CCOCC2)n(C2CCN(S(=O)(=O)c3c(C)c(C)cc(C)c3C)C2)n1` (centres undefined), the RP-LC retention time was found to be 874 s.

Compound `Cc1cc(C)c2c(=O)n(Cc3nc(-c4ccccc4Cl)oc3C)c(=O)n(Cc3ccco3)c2n1` gave an RP-LC retention time of 1390 s.

Regarding `CCc1cccc(NC(=O)Cn2c(-c3cnccn3)nc(C)c(C)c2=O)c1`, the RP-LC retention time was determined as 809 s.

Compound `O=C(NC1CCCC1)C1CCCCN1S(=O)(=O)c1ccc(Br)cc1` (centres undefined) came in with an RP-LC retention time of 1040 s.

`CCCN1C(=O)c2cc(S(=O)(=O)N3CCCCC3CC)ccc2Oc2cccnc21` (centres undefined) had an RP-LC retention time of 1260 s.

In the case of `O=C(Cn1c(=O)c(CCC(=O)NC2CCCC2)nc2ccccc21)NCc1ccccc1`, the RP-LC retention time amounted to 782 s.

As for `Cc1noc(/C=C/c2ccc(S(=O)(=O)N3CCCCC3)s2)c1NC(=O)C1CC1`, the RP-LC retention time came out at 901 s.

`Cc1nc(C2(C)CCN(S(=O)(=O)c3cc(C)c(C)cc3C)CC2)no1` registered an RP-LC retention time of 1070 s.

Turning to `COc1cccc(CNC(=O)C2CCN(C(=O)C3Sc4ccccc4NC3=O)CC2)c1` (centres undefined), the RP-LC retention time came to 725 s.

With `CCN1C(=O)c2cc(S(=O)(=O)Nc3ccc(C)cc3F)ccc2Oc2cccnc21`, the RP-LC retention time was determined as 1030 s.

In turn, `COc1ccc(-c2nc(-c3ccc4oc(C)nc4c3)no2)cc1` displayed an RP-LC retention time of 1090 s.

The compound `CN1C(=O)c2cccnc2Sc2cc(NC(=O)C3CCCCC3)ccc21` registered an RP-LC retention time of 828 s.

Compound `CCNC(=O)N1CCCC(c2cccc(C(=O)NC3CCCCC3)c2)C1` (centres undefined) yielded an RP-LC retention time of 817 s.

As for `Cc1ccc(C)c(NC(=O)N2CCC(N3CCN(Cc4cccc(F)c4)C(=O)C3=O)CC2)c1`, the RP-LC retention time is 767 s.

As to `CCOc1cccc(-c2noc(CN3C(=O)COc4cc(Cl)ccc43)n2)c1`, the RP-LC retention time is 1180 s.

In turn, `CCCNC(=O)N1CCCC1c1nc(-c2ccc(OC)cc2)no1` (centres undefined) gave an RP-LC retention time of 758 s.

Turning to `CCOc1ccc(NC(=O)c2cc(=O)c3cc(Cl)ccc3o2)c2cccnc12`, the RP-LC retention time came out at 665 s.

Consider `CCOc1ccc(N2CC(c3nc(-c4ccc5c(c4)OCO5)no3)CC2=O)cc1` (centres undefined), for which the RP-LC retention time is 982 s.

`O=C(CN1N=C(c2ccccc2)c2ccccc2S1(=O)=O)Nc1cccc(Cl)c1` displayed an RP-LC retention time of 1020 s.

Regarding `CCNc1cc(N2CCCC(CCC(=O)Nc3ccc(OC)cc3OC)C2)ncn1` (centres undefined), the RP-LC retention time was determined as 671 s.

`O=C(c1ccc([N+](=O)[O-])o1)N1CC2CC(C1)c1cccc(=O)n1C2` (centres undefined): the RP-LC retention time is 585 s.

Take `CC1(C)CC(=O)C2=C(C1)N(Cc1cccnc1)C(=O)C2(NC(=O)C1CCCCC1)C(F)(F)F` (centres undefined): the RP-LC retention time was found to be 659 s.

The compound `CN1C(=O)c2cccnc2Sc2cc(NC(=O)Cc3ccccc3Cl)ccc21` returned an RP-LC retention time of 812 s.

On to `COC(=O)CNC(=O)N1CCC2(CC1)Nc1cc(F)ccc1-n1cccc12`, for which the RP-LC retention time is 816 s.

For `Cc1cc(Cl)ccc1NC1=NS(=O)(=O)c2ccccc21`, the RP-LC retention time was 834 s.

The compound `CCc1nc2cc(N3CCCC(C(=O)NC4CCCC4)C3)cnc2nc1CC` (centres undefined) came in with an RP-LC retention time of 785 s.

Consider `Cc1cccc(-c2nnc(C)c(N3CCCCC3C)n2)c1` (centres undefined), for which the RP-LC retention time amounted to 765 s.

In the case of `O=C(CN1c2ccc(F)cc2-c2ccccc2S1(=O)=O)NCCN1CCOCC1`, the RP-LC retention time was determined as 624 s.

`Cc1cc(N2CCN(C)CC2)nc2ccc(NC(=S)N3CCCCCC3)cc12` displayed an RP-LC retention time of 556 s.

In turn, `Cc1cc(N2CCN(C)CC2)nc2ccc(NC(=S)NCc3ccc(F)cc3Cl)cc12` registered an RP-LC retention time of 612 s.

As to `CCc1ccc(CNC(=O)C2CCN(C(=O)c3ncn4c3COC(c3ccc(C)cc3)C4)CC2)cc1` (centres undefined), the RP-LC retention time worked out at 853 s.

In the case of `COc1cc(NC(=O)NCCc2nc3cccnc3n2-c2ccccc2)cc(OC)c1OC`, the RP-LC retention time came to 682 s.

For `Cc1ccc(-c2coc(-c3cccc(NS(=O)(=O)c4ccc(Br)s4)c3)n2)cc1`, the RP-LC retention time worked out at 1300 s.

Take `O=C(CCCCCN1C(=O)c2cccc3cccc(c23)C1=O)NO`: the RP-LC retention time is 694 s.

`O=C(NC1CCCCC1)C1CCN(S(=O)(=O)c2cc(C(=O)N3CCOCC3)cs2)CC1` gave an RP-LC retention time of 710 s.

In turn, `O=c1c2cc(-c3ccc4c(c3)OCO4)nn2ccn1Cc1ccc(F)cc1` returned an RP-LC retention time of 986 s.

Compound `Cc1nc(C(=O)Nc2cc(F)ccc2F)c(C)o1` registered an RP-LC retention time of 998 s.

Turning to `CN(CC1CCOCC1)C(=O)Cc1ccccc1`, the RP-LC retention time was 695 s.

For `COc1ccc(-c2nnc(SCc3cc(=O)n4c(C)csc4n3)o2)cc1`, the RP-LC retention time worked out at 831 s.

Compound `COc1ccc2[nH]cc(CCN3CC(C(=O)Nc4nnc(C(C)(C)C)s4)CC3=O)c2c1` (centres undefined) yielded an RP-LC retention time of 744 s.

The compound `CCCN1C(=O)c2cc(S(=O)(=O)Nc3ccc(C)cc3)ccc2Oc2cccnc21` registered an RP-LC retention time of 1100 s.

As to `CCCc1nc(-c2c(C)cc(C)nc2NC(=O)c2cc(F)cc(F)c2)no1`, the RP-LC retention time was 938 s.

The compound `Cc1ccc(Nc2c(-c3ccccc3)nc3cnccn23)c(Br)c1` showed an RP-LC retention time of 1040 s.

Turning to `O=C(NC1CC1)c1nnn(-c2ccccc2)c1-c1cccnc1`, the RP-LC retention time is 691 s.

`Cc1ccc(-c2ncccc2CNS(=O)(=O)c2ccc(Cl)s2)cc1`: the RP-LC retention time worked out at 780 s.

`N#Cc1cccc(C(=O)NC2(c3nc(-c4ccncc4)no3)CCCCC2)c1` registered an RP-LC retention time of 875 s.

Regarding `O=C1OC(Nc2nc(-c3cccc(Br)c3)cs2)c2ccccc21` (centres undefined), the RP-LC retention time turned out to be 862 s.

`O=C(Nc1ccc(-c2nc3ccccc3o2)cc1)c1ccc(S(=O)(=O)N2CCCC2)cc1`: the RP-LC retention time amounted to 1000 s.

In turn, `COc1cccc(NC(=O)C2CCCN(c3ncnc4oc(C)c(C)c34)C2)c1` (centres undefined) yielded an RP-LC retention time of 891 s.
